Starred links: 1 amine or outer side, 2 acyl side, 3 side chain; linkers in the order of their positions; H or OH if unused. Positions of bridges follow the written chain, without caps; N, C: chain ends. Residues, ends and D or L forms follow the SMILES beside them. *: point of attachment. C20 diacid = O=C(O)CCCCCCCCCCCCCCCCCCC(=O)*; γGlu = O=C(O)[C@H](CCC(=O)[*:2])N[*:1]
Assay: Assay (III) ThT fibrillation assay for physical stability
Type: physicochemical
Details: for ThT pH 4.0 lag time: pH 4.0, ThT fibrillation assay
Summary of the method: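 Freshly prepared, pH-adjusted formulations with 1 μM ThT incubated at 37 °C under 960 rpm orbital shaking (1 mm), fluorescence (ex 444, em 485 nm) read every 20 min. […] Peptide content before and after measured by reverse-phase HPLC against pramlintide standard.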

SMILES | ThT pH 4.0 lag time (physical stability in fibrillogenesis assay) [h] | ThT pH 4.0 lag time [h]
CC[C@H](C)[C@H](NC(=O)[C@@H]1CCCN1C(=O)CNC(=O)[C@H](Cc1ccccc1)NC(=O)[C@H](CC(N)=O)NC(=O)[C@H](CC(N)=O)NC(=O)[C@H](CO)NC(=O)[C@H](CO)NC(=O)[C@H](Cc1c[nH]cn1)NC(=O)[C@H](CCCNC(=N)N)NC(=O)[C@H](CC(C)C)NC(=O)[C@H](Cc1ccccc1)NC(=O)[C@H](CCC(=O)O)NC(=O)[C@H](C)NC(=O)[C@H](CC(C)C)NC(=O)[C@H](CCCNC(=N)N)NC(=O)[C@H](CCC(N)=O)NC(=O)[C@@H](NC(=O)[C@H](C)NC(=O)[C@@H]1CSSC[C@H](NC(=O)CNC(=O)CC[C@H](NC(=O)CCCCCCCCCCCCCCCCCCC(=O)O)C(=O)O)C(=O)N[C@@H](CC(N)=O)C(=O)N[C@@H]([C@@H](C)O)C(=O)N[C@@H](C)C(=O)N[C@@H]([C@@H](C)O)C(=O)N1)[C@@H](C)O)C(=O)N[C@@H](CC(C)C)C(=O)N1CCC[C@H]1C(=O)N1CCC[C@H]1C(=O)N[C@H](C(=O)N[C@@H](CC(N)=O)C(=O)N[C@H](C(=O)NCC(=O)N[C@@H](CO)C(=O)N[C@@H](CC(N)=O)C(=O)N[C@H](C(=O)N1CCC[C@H]1C(N)=O)[C@@H](C)O)C(C)C)[C@@H](C)O [Example 88, N-alpha-[(S)-4-Carboxy-4-(19-carboxynonadecanoylamino)butyryl]-[Gly1,Glu14,Arg17,Pro37]-pramlintide] ({C20 diacid-γGlu}-GCNTATCATQRLAEFLRHSSNNFGPILPPTNVGSNTP-NH2; disulfide 2-7) | >45 | >45
CC[C@H](C)[C@H](NC(=O)[C@@H]1CCCN1C(=O)CNC(=O)[C@H](Cc1ccccc1)NC(=O)[C@H](CC(N)=O)NC(=O)[C@H](CC(N)=O)NC(=O)[C@H](CO)NC(=O)[C@H](CO)NC(=O)[C@H](Cc1c[nH]cn1)NC(=O)[C@H](CCCNC(=N)N)NC(=O)[C@H](CC(C)C)NC(=O)[C@H](Cc1ccccc1)NC(=O)[C@H](CCC(=O)O)NC(=O)[C@H](C)NC(=O)[C@H](CC(C)C)NC(=O)[C@H](CCCNC(=N)N)NC(=O)[C@H](CCC(N)=O)NC(=O)[C@@H](NC(=O)[C@H](C)NC(=O)[C@@H]1CSSC[C@H](NC(=O)[C@H](Cc2c[nH]cn2)NC(=O)CC[C@H](NC(=O)CCCCCCCCCCCCCCCCCCC(=O)O)C(=O)O)C(=O)N[C@@H](CC(N)=O)C(=O)N[C@@H]([C@@H](C)O)C(=O)N[C@@H](C)C(=O)N[C@@H]([C@@H](C)O)C(=O)N1)[C@@H](C)O)C(=O)N[C@@H](CC(C)C)C(=O)N1CCC[C@H]1C(=O)N1CCC[C@H]1C(=O)N[C@H](C(=O)N[C@@H](CC(N)=O)C(=O)N[C@H](C(=O)NCC(=O)N[C@@H](CO)C(=O)N[C@@H](CC(N)=O)C(=O)N[C@H](C(=O)N1CCC[C@H]1C(N)=O)[C@@H](C)O)C(C)C)[C@@H](C)O [Example 90, N-alpha-[(S)-4-Carboxy-4-(19-carboxynonadecanoylamino)butyryl]-[His1,Glu14,Arg17,Pro37]-pramlintide] ({C20 diacid-γGlu}-HCNTATCATQRLAEFLRHSSNNFGPILPPTNVGSNTP-NH2; disulfide 2-7) | >45 | >45
CC[C@H](C)[C@H](NC(=O)[C@@H]1CCCN1C(=O)CNC(=O)[C@H](Cc1ccccc1)NC(=O)[C@H](CC(N)=O)NC(=O)[C@H](CC(N)=O)NC(=O)[C@H](CO)NC(=O)[C@H](CO)NC(=O)[C@H](Cc1c[nH]cn1)NC(=O)[C@H](Cc1c[nH]cn1)NC(=O)[C@H](CC(C)C)NC(=O)[C@H](Cc1ccccc1)NC(=O)[C@H](CCC(=O)O)NC(=O)[C@H](C)NC(=O)[C@H](CC(C)C)NC(=O)[C@H](CCCNC(=N)N)NC(=O)[C@H](CCC(N)=O)NC(=O)[C@@H](NC(=O)[C@H](C)NC(=O)[C@@H]1CSSC[C@H](NC(=O)CNC(=O)CC[C@H](NC(=O)CCCCCCCCCCCCCCCCCCC(=O)O)C(=O)O)C(=O)N[C@@H](CC(N)=O)C(=O)N[C@@H]([C@@H](C)O)C(=O)N[C@@H](C)C(=O)N[C@@H]([C@@H](C)O)C(=O)N1)[C@@H](C)O)C(=O)N[C@@H](CC(C)C)C(=O)N1CCC[C@H]1C(=O)N1CCC[C@H]1C(=O)N[C@H](C(=O)N[C@@H](CC(N)=O)C(=O)N[C@H](C(=O)NCC(=O)N[C@@H](CO)C(=O)N[C@@H](CC(N)=O)C(=O)N[C@H](C(=O)N1CCC[C@H]1C(N)=O)[C@@H](C)O)C(C)C)[C@@H](C)O [Example 91, N-alpha-[(S)-4-Carboxy-4-(19-carboxynonadecanoylamino)butyryl]-[Gly1,Glu14,His17,Pro37]-pramlintide] ({C20 diacid-γGlu}-GCNTATCATQRLAEFLHHSSNNFGPILPPTNVGSNTP-NH2; disulfide 2-7 (inferred)) |  | 29
CC[C@H](C)[C@H](NC(=O)[C@@H]1CCCN1C(=O)CNC(=O)[C@H](Cc1ccccc1)NC(=O)[C@H](CC(N)=O)NC(=O)[C@H](CC(N)=O)NC(=O)[C@H](CO)NC(=O)[C@H](CO)NC(=O)[C@H](Cc1c[nH]cn1)NC(=O)[C@H](Cc1c[nH]cn1)NC(=O)[C@H](CC(C)C)NC(=O)[C@H](Cc1ccccc1)NC(=O)[C@H](CCC(=O)O)NC(=O)[C@H](C)NC(=O)[C@H](CC(C)C)NC(=O)[C@H](CCCNC(=N)N)NC(=O)[C@H](CCC(N)=O)NC(=O)[C@@H](NC(=O)[C@H](C)NC(=O)[C@@H]1CSSC[C@H](NC(=O)[C@H](CCCNC(=N)N)NC(=O)CC[C@H](NC(=O)CCCCCCCCCCCCCCCCCCC(=O)O)C(=O)O)C(=O)N[C@@H](CC(N)=O)C(=O)N[C@@H]([C@@H](C)O)C(=O)N[C@@H](C)C(=O)N[C@@H]([C@@H](C)O)C(=O)N1)[C@@H](C)O)C(=O)N[C@@H](CC(C)C)C(=O)N1CCC[C@H]1C(=O)N1CCC[C@H]1C(=O)N[C@H](C(=O)N[C@@H](CC(N)=O)C(=O)N[C@H](C(=O)NCC(=O)N[C@@H](CO)C(=O)N[C@@H](Cc1c[nH]cn1)C(=O)N[C@H](C(=O)N[C@@H](Cc1ccc(O)cc1)C(N)=O)[C@@H](C)O)C(C)C)[C@@H](C)O [Example 95, N-alpha-[(S)-4-Carboxy-4-(19-carboxynonadecanoylamino)butyryl]-[Arg1,Glu14,His17,His35]-pramlintide] ({C20 diacid-γGlu}-RCNTATCATQRLAEFLHHSSNNFGPILPPTNVGSHTY-NH2; disulfide 2-7 (inferred)) |  | >45
CC[C@H](C)[C@H](NC(=O)[C@@H]1CCCN1C(=O)CNC(=O)[C@H](Cc1ccccc1)NC(=O)[C@H](CC(N)=O)NC(=O)[C@H](CC(N)=O)NC(=O)[C@H](CO)NC(=O)[C@H](CO)NC(=O)[C@H](Cc1c[nH]cn1)NC(=O)[C@H](Cc1c[nH]cn1)NC(=O)[C@H](CC(C)C)NC(=O)[C@H](Cc1ccccc1)NC(=O)[C@H](CCC(=O)O)NC(=O)[C@H](C)NC(=O)[C@H](CC(C)C)NC(=O)[C@H](CCCNC(=N)N)NC(=O)[C@H](CCC(N)=O)NC(=O)[C@@H](NC(=O)[C@H](C)NC(=O)[C@@H]1CSSC[C@H](NC(=O)[C@H](CCCNC(=N)N)NC(=O)CNC(=O)CC[C@H](NC(=O)CCCCCCCCCCCCCCCCCCC(=O)O)C(=O)O)C(=O)N[C@@H](CC(N)=O)C(=O)N[C@@H]([C@@H](C)O)C(=O)N[C@@H](C)C(=O)N[C@@H]([C@@H](C)O)C(=O)N1)[C@@H](C)O)C(=O)N[C@@H](CC(C)C)C(=O)N1CCC[C@H]1C(=O)N1CCC[C@H]1C(=O)N[C@H](C(=O)N[C@@H](CC(N)=O)C(=O)N[C@H](C(=O)NCC(=O)N[C@@H](CO)C(=O)N[C@@H](Cc1c[nH]cn1)C(=O)N[C@H](C(=O)N[C@@H](Cc1ccc(O)cc1)C(N)=O)[C@@H](C)O)C(C)C)[C@@H](C)O [Example 100, N-alpha-[(S)-4-Carboxy-4-(19-carboxynonadecanoylamino)butyryl]-Gly-[Arg1,Glu14,His17,His35]-pramlintide] ({C20 diacid-γGlu}-GRCNTATCATQRLAEFLHHSSNNFGPILPPTNVGSHTY-NH2; disulfide 3-8 (inferred)) |  | 26
CC[C@H](C)[C@H](NC(=O)[C@@H]1CCCN1C(=O)CNC(=O)[C@H](Cc1ccccc1)NC(=O)[C@H](CC(N)=O)NC(=O)[C@H](CC(N)=O)NC(=O)[C@H](CO)NC(=O)[C@H](CO)NC(=O)[C@H](Cc1c[nH]cn1)NC(=O)[C@H](Cc1c[nH]cn1)NC(=O)[C@H](CC(C)C)NC(=O)[C@H](Cc1ccccc1)NC(=O)[C@H](CCC(=O)O)NC(=O)[C@H](C)NC(=O)[C@H](CC(C)C)NC(=O)[C@H](CCCNC(=N)N)NC(=O)[C@H](CCC(N)=O)NC(=O)[C@@H](NC(=O)[C@H](C)NC(=O)[C@@H]1CSSC[C@H](NC(=O)CNC(=O)CC[C@H](NC(=O)CCCCCCCCCCCCCCCCCCC(=O)O)C(=O)O)C(=O)N[C@@H](CC(N)=O)C(=O)N[C@@H]([C@@H](C)O)C(=O)N[C@@H](C)C(=O)N[C@@H]([C@@H](C)O)C(=O)N1)[C@@H](C)O)C(=O)N[C@@H](CC(C)C)C(=O)N1CCC[C@H]1C(=O)N1CCC[C@H]1C(=O)N[C@H](C(=O)N[C@@H](CC(N)=O)C(=O)N[C@H](C(=O)NCC(=O)N[C@@H](CO)C(=O)N[C@@H](Cc1c[nH]cn1)C(=O)N[C@H](C(=O)N[C@@H](Cc1ccc(O)cc1)C(N)=O)[C@@H](C)O)C(C)C)[C@@H](C)O [Example 105, N-alpha-[(S)-4-Carboxy-4-(19-carboxynonadecanoylamino)butyryl]-[Gly1,Glu14,His17,His35]-pramlintide] ({C20 diacid-γGlu}-GCNTATCATQRLAEFLHHSSNNFGPILPPTNVGSHTY-NH2; disulfide 2-7) |  | 26
